Measured values taken from paper PMC3063246, “Corticotropin Releasing Factor-Induced CREB Activation in Striatal Neurons Occurs via a Novel Gβγ Signaling Pathway” (PLoS ONE, 2011).
pEC50, pKd, pKi: −log10 of the molar value. Entries after “also recorded” stand apart in the source; their conditions may differ. No end group written: not given here.

What was measured:
[1] = tested on: CRF-induced CREB phosphorylation in striatal neurons; assay: Block of CRF-induced CREB phosphorylation; format: cell-based, rat
PI3K = conditions: 100 nM; cited from earlier work
Description: (§1) Supplement pone.0018114.s002.xlsx, sheet "Sheet1" | column: Target (notes)

PKA = conditions: cited from earlier work
Description: as §1

[2] = tested on: ISO-induced cAMP accumulation; assay: Block of ISO-induced cAMP accumulation; format: cell-based, rat; conditions: SQ22536 90 µM; ISO 10 µM; IBMX 75 µM
CRFR2 = conditions: cited from earlier work
Description: as §1

CRFR1 = biological target: CRFR1; design: method as in 5 sources, ref 26 = [26]; PMID 9918582; 26 Perrin MH Sutton SW Cervini LA Rivier JE Vale WW 1999 Comparison of an agonist, urocortin, and an antagonist, astressin, as radioligands for characterization of corticotropin-releasing factor recep ||| ref [73] (a number printed in a supplementary file, which may have a reference list of its own: not looked up in the article's list) ||| ref [74] (a number printed in a supplementary file, which may have a reference list of its own: not looked up in the article's list) ||| ref [75] (a number printed in a supplementary file, which may have a reference list of its own: not looked up in the article's list) ||| ref [76] (a number printed in a supplementary file, which may have a reference list of its own: not looked up in the article's list); conditions: cited from earlier work
CRF receptor 1 = CRF receptor 1 (UniProt P34998); conditions: cited from earlier work
Sequence of CRF receptor 1 (P34998 24-415): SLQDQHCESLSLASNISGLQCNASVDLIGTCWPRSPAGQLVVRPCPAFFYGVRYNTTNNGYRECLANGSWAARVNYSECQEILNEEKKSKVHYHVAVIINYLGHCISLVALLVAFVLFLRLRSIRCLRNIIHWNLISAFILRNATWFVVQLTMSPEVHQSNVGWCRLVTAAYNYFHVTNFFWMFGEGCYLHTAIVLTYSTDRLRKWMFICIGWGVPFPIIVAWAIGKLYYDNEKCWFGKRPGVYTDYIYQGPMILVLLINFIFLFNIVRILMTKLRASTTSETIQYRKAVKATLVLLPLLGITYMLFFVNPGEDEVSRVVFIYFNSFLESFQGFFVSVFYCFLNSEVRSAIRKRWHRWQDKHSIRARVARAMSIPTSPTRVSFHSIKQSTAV

[3] = tested on: STR-induced CREB phosphorylation; assay: Block of stressin-1-induced CREB phosphorylation; format: cell-based, rat; conditions: CP154526 100 nM; stressin-1 70 nM, 15 min
[4] = tested on: depolarization-induced CREB phosphorylation; design: method as in 3 sources, ref 36 = [36]; PMID 11226322; doi:10.1073/pnas.051634198; 36 Wu GY Deisseroth K Tsien RW 2001 Activity-dependent CREB phosphorylation: convergence of a fast, sensitive calmodulin kinase pathway and a slow, less sensitive mitogen-activated protein kinase path ||| ref [36] (a number printed in a supplementary file, which may have a reference list of its own: not looked up in the article's list) ||| ref [71] (a number printed in a supplementary file, which may have a reference list of its own: not looked up in the article's list); conditions: 2 µM; cited from earlier work
[5] = tested on: CREB phosphorylation in cultured striatal neurons; format: cell-based, rat; conditions: AC agonist, 25 µM
[6] = inhibitor 500 nM, 30 min prior and concurrently, CRF 15 min, data not shown
[7] = inhibitor 10 µM, 30 min prior and concurrently, CRF 15 min
[8] = inhibitor 1 µM, 30 min prior and concurrently, CRF 15 min, data not shown
[9] = inhibitor 100 nM, 30 min prior and concurrently, CRF 15 min

COC[C@H]1OC(=O)c2coc3c2[C@@]1(C)C1=C(C3=O)[C@@H]2CCC(=O)[C@@]2(C)C[C@H]1OC(C)=O [wortmannin]
effect on CRF-induced CREB phosphorylation [1, 6]: failed to affect CRF-induced CREB phosphorylation | PI3K inhibition (PI3K): PI3K (100 nM inhibits PI3K)

CCN(CC)CC.Nc1ncnc2c1ncn2[C@@H]1O[C@@H]2COP(O)(=S)O[C@H]2[C@H]1O (stereo partly shown) [cAMPS-Rp, triethylammonium salt]
effect on CRF-induced CREB phosphorylation [1, 7]: failed to eliminate CRF-induced CREB phosphorylation | pEC50 (PKA): 4.80 to 4.96

Nc1ncnc2c1ncn2C1CCCO1 (stereo not shown) [SQ22536]
effect on ISO-induced cAMP formation [2]: completely blocked ISO-induced cAMP accumulation; also recorded: completely blocked ISO-induced cAMP formation | effect on CRF-induced CREB phosphorylation ([1]; inhibitor 90 µM, 30 min prior and concurrently, CRF 15 min): had no effect on CRF-induced CREB phosphorylation; also recorded: failed to affect CRF-induced CREB phosphorylation

COc1cccc(-c2cc(=O)c3ccccc3o2)c1N [PD98059]
effect on CRF-induced CREB phosphorylation ([1]; inhibitor 25 µM, 30 min prior and concurrently, CRF 15 min, data not shown): yielded a similar result

PKI, 14–22 amide: cell permeable peptide PKA inhibitor (SGRTGRRNA-NH2; not fully specified (N-terminus); also: myristoylated, site not given here; UniProt P61925 14-22, looked up, fragment)
effect on CRF-induced CREB phosphorylation [1, 8]: failed to eliminate CRF-induced CREB phosphorylation | pKi (PKA): 7.44

astressin
effect on CRF-induced CREB phosphorylation ([1]; inhibitor 50 nM, 30 min prior and concurrently, CRF 15 min): completely abolished CRF-induced CREB phosphorylation; also recorded: blocked | pKi (CRFR2): 8.55 to 8.82 | pKi (CRFR1): 8.70 to 8.80

Cc1cncc2cccc(S(=O)(=O)N3CCCNC[C@@H]3C)c12 [H-1152]
effect on CRF-induced CREB phosphorylation [1, 6]: failed to affect CRF-induced CREB phosphorylation

N#CC(=C(/N)Sc1ccccc1N)/C(C#N)=C(/N)Sc1ccccc1N [U0126]
effect on CRF-induced CREB phosphorylation [1, 7]: blocked CRF-induced CREB phosphorylation

COC(=O)C1=C(C)NC(C)=C(C(=O)OC)C1c1ccccc1[N+](=O)[O-] [nifedipine]
effect on CRF-induced CREB phosphorylation ([1]; inhibitor 5 µM, 30 min prior and concurrently, CRF 15 min): had no effect on CRF-induced CREB phosphorylation; also recorded: not affected

Corticotropin releasing factor (from UniProt P06850)
pKd (CRF receptor 1): 8.12

CCCCCCOC(=O)[C@]1(O)C[C@@H]2O[C@@]1(C)n1c3ccccc3c3c4c(c5c6ccccc6n2c5c31)C(=O)NC4 [KT5720]
effect on CRF-induced CREB phosphorylation [1, 8]: failed to eliminate CRF-induced CREB phosphorylation

pertussis toxin [PTX]
effect on CRF-induced CREB phosphorylation ([1]; PTX overnight (18 hr) pretreatment, 0.5 µng/µL, 500 ng/mL): did not alter CRF-mediated CREB phosphorylation; also recorded: did not affect CRF-induced pCREB

CCCCN(CC)c1nc(C)nc2c1c(C)cn2-c1c(C)cc(C)cc1C [CP154526]
effect on STR-induced CREB phosphorylation [3]: blocked | effect on CRF-induced CREB phosphorylation [1, 9]: eliminated CRF-induced CREB phosphorylation; also recorded: blocked | pKi (CRFR2): < 5.00 | pKi (CRFR1): 8.57

antisauvagine-30
effect on CRF-induced CREB phosphorylation [1, 9]: failed to block CRF-induced CREB phosphorylation; also recorded: had no effect on CRF-induced CREB phosphorylation | pKd (CRFR2): 8.85 | pKd (CRFR1): 6.81

COc1ccc(S(=O)(=O)N(CCO)c2ccccc2CN(C)C/C=C/c2ccc(Cl)cc2)cc1 [KN-93]
effect on depolarization-induced CREB phosphorylation [4]: blocks depolarization-induced CREB phosphorylation | effect on CRF-induced CREB phosphorylation ([1]; inhibitor 2 µM, 30 min prior and concurrently, CRF 15 min): had no effect on CRF-induced CREB phosphorylation; also recorded: did not affect CRF-induced CREB phosphorylation

C=C[C@@]1(C)CC(=O)[C@]2(O)[C@@]3(C)[C@@H](O)CCC(C)(C)[C@@H]3[C@H](O)[C@H](OC(C)=O)[C@@]2(C)O1 [forskolin]
CREB phosphorylation [5]: CREB phosphorylation stimulated
